From PMC6026642 (Frontiers in Chemistry, 2018)
Like-named read-outs stand apart in the source and are kept apart here. No end group written: not given here.

How the values were obtained:
[1] = rat, in vivo, 2 mg/kg
[2] = in vivo; details: both, Wistar, rat, 2 mg/kg
[3] = tested on: PRV; assay type: cell-based, pseudorabies virus; details: TCID50 based, R = A2/A1 × 100%; 50 μg/ml peptide (method says 50 μM, 1 h incubation); Vero and PK-15 cells; mean
[4] = tested on: PEDV; assay type: cell-based, porcine epidemic diarrhea virus

Sequence: FFHHIFRGIVHVGKTIHRLVTG [Piscidin 1]
- AUC0−∞ [1]: 78.40 ± 8.64 µg·h/g
- CLb (body clearance) [1]: 0.433 ± 0.13 mL/min/kg
- Cmax [1]: 1.67 ± 0.19 µg/g
- Ke (elimination rate constant) [1]: 0.034 ± 0.06 h⁻¹
- MRT [1]: 36.45 ± 2.45 h
- Ratio of AUC0−∞, ileum content / serum [1]: 4.14
- Ratio of CLb, ileum content / serum [1]: 0.273
- Ratio of Cmax, ileum content / serum [1]: 0.71
- Ratio of Ke, ileum content / serum [1]: 1.17
- Ratio of MRT, ileum content / serum [1]: 1.21
- Ratio of T1/2, ileum content / serum [1]: 0.858
- Ratio of Tmax, ileum content / serum [1]: 24.38
- T1/2 (elimination half-life) [1]: 20.16 ± 1.76 h
- Tmax [1]: 8.12 ± 1.02 h
- AUC(0-inf) ([2]; im): 19000 ± 1370 ng·h/mL
- Cmax ([2]; im): 2370 ± 160 ng/mL
- MRT ([2]; im): 30.1 ± 2.46 h
- Tmax ([2]; im): 0.333 ± 0.151 h
- bioavailability ([2]; im): 73.2%
- half-life ([2]; im): 23.5 ± 2.43 h
- AUC(0-inf) ([2]; iv): 25900 ± 3210 ng·h/mL
- MRT ([2]; iv): 22.8 ± 2.43 h
- clearance ([2]; iv): 1.12 mL/min/kg
- half-life ([2]; iv): 17 ± 1.43 h
- AUC(0-inf) ([2]; po): 9630 ± 870 ng·h/mL
- Cmax ([2]; po): 730 ± 80 ng/mL
- MRT ([2]; po): 26.8 ± 2.89 h
- Tmax ([2]; po): 0.5 ± 0.23 h
- bioavailability ([2]; po): 37.2%
- half-life ([2]; po): 19.5 ± 1.67 h

Sequence: FKCRRWQWRMKKLGAPSITCVRRAF [lactoferricin]
- virus survived ratio of PRV [3]: 82%
- virus survived ratio of PEDV [4]: 93%
